target: 3',5'-cyclic-AMP phosphodiesterase 4A (Homo sapiens, UniProt P27815); assay: PDE4A activity assessed using human recombinant purified GST-PDE4A248
Sequence (P27815 whole entry): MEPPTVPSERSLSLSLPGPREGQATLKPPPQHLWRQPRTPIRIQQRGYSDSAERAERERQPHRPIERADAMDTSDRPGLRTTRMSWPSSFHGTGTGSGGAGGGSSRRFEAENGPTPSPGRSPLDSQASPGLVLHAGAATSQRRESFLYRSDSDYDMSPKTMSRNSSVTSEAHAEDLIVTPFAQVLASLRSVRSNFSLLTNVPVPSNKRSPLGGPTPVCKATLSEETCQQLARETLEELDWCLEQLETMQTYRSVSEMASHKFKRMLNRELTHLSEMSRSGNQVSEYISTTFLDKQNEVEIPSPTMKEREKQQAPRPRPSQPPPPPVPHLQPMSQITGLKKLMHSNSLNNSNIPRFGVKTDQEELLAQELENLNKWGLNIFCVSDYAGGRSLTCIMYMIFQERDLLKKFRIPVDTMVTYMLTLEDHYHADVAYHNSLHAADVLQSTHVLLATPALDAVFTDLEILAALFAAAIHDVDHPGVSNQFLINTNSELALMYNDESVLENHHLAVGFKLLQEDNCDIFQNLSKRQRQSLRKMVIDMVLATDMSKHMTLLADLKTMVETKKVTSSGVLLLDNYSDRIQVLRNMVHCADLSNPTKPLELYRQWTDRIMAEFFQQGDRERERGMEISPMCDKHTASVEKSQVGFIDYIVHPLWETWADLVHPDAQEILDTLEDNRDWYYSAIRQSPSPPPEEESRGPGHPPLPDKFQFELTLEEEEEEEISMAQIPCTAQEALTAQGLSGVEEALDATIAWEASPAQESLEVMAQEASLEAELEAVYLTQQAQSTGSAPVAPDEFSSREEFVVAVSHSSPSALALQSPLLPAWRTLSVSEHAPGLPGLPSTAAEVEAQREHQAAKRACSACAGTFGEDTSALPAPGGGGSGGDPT

Row | Structure (SMILES) | IC50
1 | c1ccc(-c2ccc(-c3ccccc3)o2)cc1 | > 10 µM
2 | O=C(c1ccccc1)c1cc(-c2ccccc2)oc1-c1ccccc1 | 0.34 µM
3 | COc1ccc(-c2cc(C(C)=O)c(-c3ccc(OC)c(OC)c3)o2)cc1OC | 0.12 µM
4 | COc1ccc(-c2ccc(-c3ccc(OC)c(OC)c3)o2)cc1OC | 0.56 µM
5 | COc1ccc(-c2ccc(-c3ccc(OC)c(OC4CCCC4)c3)o2)cc1OC1CCCC1 | 0.044 µM
6 | COc1ccc(-c2ccc(-c3cccnc3)o2)cc1OC1CCCC1 | 0.37 µM
7 | COc1ccc(-c2cc(S(=O)(=O)c3ccccc3)c(-c3ccccn3)o2)cc1OC1CCCC1 | 0.74 µM
8 | COc1ccc(-c2ccc(-c3ccccn3)o2)cc1OC1CCCC1 | 0.025 µM
9 | c1ccc(-c2cc(N3CCOCC3)c(-c3ccccc3)o2)cc1 | 2.3 µM
10 | COc1ccc(-c2oc(-c3ccccn3)cc2S(=O)(=O)c2ccccc2)cc1OC1CCCC1 | 0.77 µM
11 | COc1ccc(-c2oc(-c3ccccn3)cc2C(=O)c2ccccc2)cc1OC1CCCC1 | 0.59 µM
12 | COc1ccc(-c2ccc(-c3ccncc3)o2)cc1OC1CCCC1 | 0.065 µM
13 | COc1ccc(-c2ccc(-c3ccc4ccccc4n3)o2)cc1OC1CCCC1 | 0.19 µM

organism: Mustela putorius furo; assay: Emetic effect in ferret model, threshold value; format: functional

Row | Structure (SMILES) | Threshold value
14 | COc1ccc(-c2ccc(-c3ccccn3)o2)cc1OC1CCCC1 | 10 mg/kg
15 | COc1ccc([C@@H]2CNC(=O)C2)cc1OC1CCCC1 [(-)-ROLIPRAM] | 0.3 mg/kg

— ChEMBL document CHEMBL1131915, “Substituted furans as inhibitors of the PDE4 enzyme” (Bioorg Med Chem Lett, 1999)
